Results as given in patent EP1827382B1, “NOVEL GALENIC SYSTEM FOR ACTIVE PRINCIPLE TRANSPORT, PREPARATION METHOD AND USE” (Capsugel France, priority 2004, dated 2006).

Assay: Resistance test in acid medium (omeprazole content after neutralisation, over time)
Type: physicochemical
Details: stirred medium pH 1,2, 37,5°C; omeprazole assayed by HPLC after neutralisation to pH=6,8, over time; figure 1
Procedure: Pour déterminer la résistance au pH acide, les préparations sont placées en milieu agité à pH 1,2 à 37,5°C. La résistance au pH acide est déterminée par le dosage du taux d'Oméprazole après neutralisation à pH=6,8 en fonction du temps.
L'Oméprazole est dosée par HPLC après extraction.

## COc1ccc2[nH]c([S+]([O-])Cc3ncc(C)c(OC)c3C)nc2c1 (stereo not shown) [Oméprazole libre, Oméprazole]
  résistance au pH acide: dégradé en quelques minutes
